GI50 and TGI data for eight molecules are collected here from PubChem BioAssay (NCI).

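Five compound concentrations were applied to cells in 96-well plates for 48 hours; endpoints were derived by simple linear interpolation of the resulting dose-response curve. The concentration for 50% growth inhibition is given as GI50. Definition used: TGI = concentration required for complete inhibition of growth.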

Test in all cases: DTP human tumour cell line panel, 48 h
The test system of assay [1] is HL-60(TB) leukemia.
Assay [2] relates to NCI/ADR-RES ovarian.
For assay [3], the system named is NCI-H460 lung.
Assay [4] concerns HOP-62 NSCLC.
Assay [5] deals with BT-549 breast.
Assay [6] has as its system K-562 leukemia.
The subject of assay [7] is HCT-15 colon.
The subject of assay [8] is SK-MEL-5 melanoma.
The test system of assay [9] is SK-MEL-28 melanoma.
In assay [10] the test system is HCC-2998 colon.

On to `COc1cc2c3c(n(CCCNCCCN)c(=O)c2cc1OC)-c1cc2c(cc1C3=O)OCO2`, for which the GI50 – broadly, the concentration that inhibits growth by half – in assay [1] was 1.46 µM; in assay [2] it was 22.9 µM; in [3], 4.07 µM; in assay [4], 1.6 µM; in assay [5] it was 6.49 µM; in assay [6] it was 3.4 µM. Moreover, the values for the GI50 in [7], in assay [8] and in assay [9] were 25 µM, 5.35 µM and 4.37 µM, respectively. Moreover, the TGI (usually the concentration at which net growth stops) was 5.28 µM in [1]; 98.7 µM in assay [2]; 18 µM in assay [3]; 13 µM in [4]; 20.6 µM in [5]; 10.4 µM in assay [6]. Besides, the TGI was greater than 100 µM in assay [7], 19 µM in assay [8] and 17.8 µM in assay [9].
As for `O=P(O)(O)OCC1OC(n2cnc3c(NCc4ccccc4)ncnc32)C(O)C1O` (stereo not drawn), the GI50 was 0.346 µM in [1]; 1.19 µM in [2]; 10.6 µM in assay [3]; 1.74 µM in assay [4]; 0.473 µM in [5]; 2.01 µM in assay [10]. Moreover, the GI50 in assay [6] was 2.52 µM; in assay [7], 1.19 µM; in assay [8], 17 µM; in assay [9], 21.2 µM. For the same molecule, the TGI in [1] is greater than 100 µM; in assay [2] it was 30.7 µM; in [3] it was greater than 59.3 µM; in assay [4] it was 27.9 µM; in [5] it was 2.49 µM; in [10], 11.8 µM. Besides, the TGI in [6] is greater than 100 µM; in assay [7] it was 16 µM; in assay [8], greater than 100 µM; in [9] it was greater than 100 µM.
Turning to `O=C1NC(c2ccccc2)C2(C(=O)O)CN(C3CC3)c3cc(N4CCNCC4)c(F)cc3C2N1` (stereo not drawn), the GI50 in assay [1], in assay [2], in assay [3], in [4], in assay [5] and in assay [10] was greater than 100 µM throughout. Besides, the GI50 in assay [6], in [7], in assay [8] and in assay [9] was greater than 100 µM in each case. Moreover, the TGI in assay [1], in assay [2], in assay [3], in assay [4], in assay [5] and in assay [10] was greater than 100 µM each time. Moreover, the TGI in [6], in assay [7], in assay [8] and in assay [9] was greater than 100 µM in each case.
In the case of `O=C(O)c1ccc(SSc2ccc(C(=O)O)cn2)nc1`, the TGI in assay [1], in assay [2], in assay [3], in [4], in assay [5] and in [6] was greater than 100 µM each time. Also, the TGI in assay [7], in [8] and in [9] was greater than 100 µM each time.
In the case of `CC(C)(C)OC(=O)Nc1ccc2c(c1)C(NC(=O)Nc1cccc(C#N)c1)CC(C)(C)O2` (stereo not drawn), the GI50 is 2.39 µM in assay [1]; 2.78 µM in assay [2]; 3 µM in assay [3]; 5 µM in assay [4]; 2.65 µM in [5]; 4.93 µM in assay [10]. Besides, the GI50 is 2.12 µM in assay [6], 1.89 µM in assay [7], 0.463 µM in [8] and 5.34 µM in assay [9]. The TGI in [1] is 22.3 µM; in assay [2], greater than 64.6 µM; in assay [3], greater than 100 µM; in assay [4] it was greater than 100 µM; in [5] it was 18 µM; in assay [10], greater than 100 µM. Also, the TGI in [6] is greater than 100 µM; in assay [7], greater than 51.3 µM; in [8] it was 3.15 µM; in assay [9] it was 71.4 µM.
With `CCOC(=O)/C=C/c1cccc(F)c1`, the TGI in [1], in assay [2], in assay [3], in assay [4], in [5] and in [10] was greater than 100 µM throughout. Besides, the TGI in assay [6], in [7] and in assay [9] was greater than 100 µM throughout.
For `Nc1cccc2c1C(=O)c1cccc(NC(=O)c3ccccc3)c1C2=O`, the GI50 in [1] is 0.292 µM; in assay [2], 0.212 µM; in [3] it was 0.371 µM; in assay [4] it was 0.535 µM; in assay [5] it was 0.674 µM; in [10], 2.79 µM. Moreover, the GI50 was 0.133 µM in [6], 0.448 µM in assay [7], 0.355 µM in [8] and 1.11 µM in assay [9]. In addition, the TGI in assay [1] is greater than 100 µM; in assay [3], greater than 32.6 µM; in assay [4] it was 21.5 µM; in assay [5] it was 33.9 µM; in [10], greater than 100 µM; in assay [6] it was greater than 100 µM. In addition, the TGI in assay [7] was greater than 100 µM; in [8], 15 µM; in [9], 21 µM.
For `COc1c(N2CCN(CN3C(=O)C(=Nc4ccc(S(=O)(=O)Nc5ncccn5)cc4)c4cc(Cl)ccc43)C(C)C2)c(F)cc2c(=O)c(C(=O)O)cn(C3CC3)c12` (stereo not drawn), the GI50 was 16.6 µM in assay [1]; 12.3 µM in assay [2]; 10.9 µM in assay [3]; 18.2 µM in [4]; 20.4 µM in [5]; 21.5 µM in [6]. For the same molecule, the GI50 was 45.4 µM in [7], 7.99 µM in [8] and 30.4 µM in assay [9]. For the same molecule, the TGI in assay [1] is greater than 50 µM; in assay [2], 38.1 µM; in [3], 46 µM; in assay [4] it was greater than 50 µM; in assay [5], greater than 50 µM; in assay [6] it was greater than 50 µM. For the same molecule, the TGI in assay [7] is greater than 50 µM; in assay [8], 15.8 µM; in assay [9], greater than 50 µM.
